According to patent publication US8927462B2, “Method for identifying HLA complexes associated with adverse drug reactions” (Academia Sinica, priority 2010, dated 2015):

How the values were obtained:
autologous B-LCL cells = assay: 51Cr-release cytotoxicity assay, CBZ-specific CD8+ T cells against drug-pulsed autologous B-LCL; type: cell-based, human; settings: B-LCL pulsed with 25 μg/ml drug overnight at 37° C. and washed out before the cytotoxicity assay; FIG. 3
Method: (§1) PBMC were isolated by the density-gradient Ficoll-Paque method according to the manufacturer's instructions (GE Healthcare Company, Piscataway, N.J., USA). […] After 3˜4 times of restimulation, CD8^+ T cells were sorted out for further functional assays. T cells were cultured with RPMI-HS medium consisted of RPMI 1640 supplemented with 10% heat-inactivated human type AB serum (Labquid Inc, Ontario, Calif.) and 50 U/ml IL-2 (R&D Systems, Minneapolis, Minn., USA). EBV-transformed B-cell lines (B-LCL) were generated by transforming the donor's PBMCs with supernatant from the EBV-producing cell lines B9-85.
Irradiated APCs (10^3) and T cells (10^4) were incubated with a test compound for 48 hours, and the proliferation of T cells was measured by incorporation of [^3H] thymidine. For fixation assay, autologous B-LCLs were pretreated with 0.05% paraformaldehyde for 30 s. For pulsing experiments, drugs were preincubated with B-LCLs overnight. […]
B-LCLs, preincubated with IFN-γ (R&D Systems, Minneapolis, Minn., USA) overnight, were first incubated with ^51Cr (Perkin Elmer, Waltham, Mass., USA) for 1 hr at 37° C. […] Radioactivity in the supernatant from each wells was measured by a Topcount (Packard Biosciences, Meriden, Conn., USA). The percentage of specific lysis was calculated as follows: (^51Cr release in the test well−spontaneous ^51Cr release)/(maximum ^51Cr release−spontaneous ^51Cr release).

HLA-B*1503 = HLA-B*1503 (Homo sapiens, UniProt P01889, A329T/A93T/A95T/C349S/D201E/D98Y/E187L/E204Q/K202T/N87E/Q94N/R155S/R180L/S121R/S35A/V306I/V36M/Y140S/Y91S); assay: Surface plasmon resonance (SPR) binding to soluble HLA-B*1503; settings: for binding to other HLA-B molecules (SPR): HLA-B*1503: at therapeutic concentrations
HLA-B*4001 = HLA-B*4001 (Homo sapiens, UniProt P01889, A65T/A93T/A95T/D138N/D98Y/E176V/E69K/N87E/Q56L/Q94N/R180L/S121R/S35A/S48T/T167S/V36M/W171L/Y33H/Y91S); assay: Surface plasmon resonance (SPR) binding to soluble HLA-B*4001; settings: for binding to other HLA-B molecules (SPR): HLA-B*4001: at therapeutic concentrations
HLA-B*1501 = target: T1, HLA-B*1501 (Homo sapiens, UniProt P01889, A329T/A93T/A95T/C349S/D201E/D98Y/E187L/E204Q/E69M/E70A/K202T/N87E/Q94N/R155S/R180W/S121R/S35A/S48A/V306I/V36M/Y140S/Y91S); assay: Surface plasmon resonance (SPR) binding to soluble HLA-B*1501; settings: for binding to other HLA-B molecules (SPR): HLA-B*1501: at therapeutic concentrations
T1 construct: Complexes containing soluble HLA-B*1501 or 1503 and β2-microglobulin were prepared following the same procedure described above; made in house

[1] = tested on: CBZ-specific CD8+ T cells; assay: [3H] thymidine incorporation assay, T cell proliferation with fixed and non-fixed B-LCLs; type: cell-based, human; settings: fixed and unfixed autologous B-LCL; FIG. 4
Method: as §1
Irradiated APCs (10^3) and T cells (10^4) were incubated with a test compound for 48 hours, and the proliferation of T cells was measured by incorporation of [^3H] thymidine. For fixation assay, autologous B-LCLs were pretreated with 0.05% paraformaldehyde for 30 s. For pulsing experiments, drugs were preincubated with B-LCLs overnight. B-LCLs were washed repeatedly to remove noncovalently bound drug, and then incubated with T cells.

HLA-B*5101 = HLA-B*5101 (Homo sapiens, UniProt P01889, A329T/A93T/A95T/C349S/D138N/D201E/D98Y/E187L/E204Q/E69T/G107R/I218V/K202T/L105A/L119W/N104I/Q94N/R106L/R155S/R180L/S101N/S121T/S35A/S48A/V306I/V36M/Y195H/Y91F); assay: Surface plasmon resonance (SPR) binding to soluble HLA-B*5101; settings: for binding to other HLA-B molecules (SPR): HLA-B*5101: at therapeutic concentrations
[2] = tested on: peptides bound to the soluble HLA-B*1502-β2-microglobulin complex; assay: Analysis of HLA-B-bound drug-modified peptides by liquid chromatography-tandem mass spectrometry (C1R-HLA-B*1502 clone treated with CBZ); parameters: species or system human; settings: C1R-HLA-B*1502 culture, 50 μg/mL for 48 hours; LC-tandem MS of <3-kDa fraction

Structure (SMILES)	response (specific lysis) of CBZ-specific CD8+ T cells to pulsed autologous B-LCL (autologous B-LCL cells)	binding to HLA-B*1503 (SPR) (HLA-B*1503; FIG. 6)	binding to HLA-B*4001 (SPR) (HLA-B*4001; FIG. 6)	binding to HLA-B*1501 (SPR) (HLA-B*1501; FIG. 6)	presentation by B-LCL and activation (proliferation) of CBZ-specific CD8+ T cells [1]	binding to HLA-B*5101 (SPR) (HLA-B*5101; FIG. 6)	covalent binding of drug to HLA-B*1502-bound peptides [2]	binding to other HLA-B molecules (SPR): HLA-B*1503 (HLA-B*1503)	binding to other HLA-B molecules (SPR): HLA-B*4001 (HLA-B*4001)	binding to other HLA-B molecules (SPR): HLA-B*1501 (HLA-B*1501)	binding to other HLA-B molecules (SPR): HLA-B*5101 (HLA-B*5101)
NC(=O)N1c2ccccc2C=Cc2ccccc21 [CBZ, carbamazepine]	none of the CBZ-specific CD8^+ T cells responded	neither CBZ nor its seven analogs (see the Compounds section above) binds	did not bind	neither CBZ nor its seven analogs (see the Compounds section above) binds	able to be presented by both fixed and unfixed autologous B-LCL and activated	did not bind	does not covalently bind to peptides	–	–	–	–
NCC1(CC(=O)O)CCCCC1 [GAB, gabapentin]	–	–	–	–	negative results	–	–	did not bind	did not bind	did not bind	did not bind
CC[C@@H](C(N)=O)N1CCCC1=O [LEV, levetiracetam]	–	–	–	–	–	–	–	did not bind	did not bind	did not bind	did not bind
CC1(C)O[C@@H]2[C@@H](CO[C@@]3(COS(N)(=O)=O)OC(C)(C)O[C@@H]23)O1 [TOP, topiramate]	–	–	–	–	–	–	–	did not bind	did not bind	did not bind	did not bind
